Target: WT STING (Homo sapiens, UniProt Q86WV6, H232R)
Experiment: 293T WT STING standard reporter assay
Format: cell-based
Parameters: host or cells: 293T (ATCC CRL-3216), stably transfected
Details: 293T wtSTING-FL cells, no digitonin, 7 h incubation, luciferase reporter
Procedure: After 5 minutes incubation at room temperature (RT), 250 μL of the mixture was added dropwise to the cells in one well. Cells were incubated 36 hours at 37° C. with 5% CO2, and then detached with 0.05% Trypsin and 0.22 g/L EDTA (both cat. #L0941, Biowest, Riverside, USA).
Transfected cells were seeded onto poly-D-lysine coated six well plates at density 50,000 cells per 1 cm^2 in DMEM medium with high glucose containing 10% heat inactivated FBS, 30 μg/mL blasticidin (cat. #ant-b1-05, InvivoGen, San Diego, USA), 0.06 mg/ml Penicillin G and 0.1 mg/ml Streptomycin Sulfate (both cat. #. L0018, Biowest, Riverside, USA). The medium was replenished every 3-4 days until visible colonies of cells resistant to blasticidin were formed.
Blasticidin resistant cells stably expressing WT STING were further transfected with […] plasmid following the same procedure as described above. […] Homogeneous culture of stably double transfected cells was prepared by limiting dilution of cells in 96 well plates and wells with cells were selected that originated from a single cell.
The medium was removed next day and three-fold serial dilutions of compounds in 100 μl medium were added to the cells. The plates with cells were incubated for 7 hours at 37° C. with 5% CO2. After 50 μl of the medium was removed, 30 μl of ONE-Glo™ Luciferase Assay System reagent (cat. #E6120, Promega, Madison, USA) was added to each well and luminescence was read on Synergy H1 (Biotek, Winooski, USA). […] (cat. #tlrl-nacga23), and 2′2′-cGAMP (cat. #tlrl-nacga22) were purchased from Invivogen (San Diego, USA).

Chain of WT STING (Q86WV6 whole entry H232R): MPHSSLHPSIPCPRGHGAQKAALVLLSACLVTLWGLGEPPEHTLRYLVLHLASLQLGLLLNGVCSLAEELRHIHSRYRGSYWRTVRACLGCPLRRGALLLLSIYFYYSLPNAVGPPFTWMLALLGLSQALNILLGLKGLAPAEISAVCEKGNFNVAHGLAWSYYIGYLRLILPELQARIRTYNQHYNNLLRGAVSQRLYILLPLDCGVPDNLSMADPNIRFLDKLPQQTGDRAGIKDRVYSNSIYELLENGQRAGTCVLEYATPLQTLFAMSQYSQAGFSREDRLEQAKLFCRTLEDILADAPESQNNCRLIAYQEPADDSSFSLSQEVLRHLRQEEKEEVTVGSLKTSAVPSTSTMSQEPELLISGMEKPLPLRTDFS

Row | EC50 [µM] | Structure (SMILES)
1 | 0.156 | Nc1ncnc2c1ncn2[C@@H]1CO[C@@H]2COP(=O)(S)O[C@H]3[C@@H](F)[C@H](n4cnc5c(N)ncnc54)O[C@@H]3COP(=O)(S)O[C@@H]12 (stereo partly drawn) [Compound 54, (1S,6R,8R,9R,10R,15R,18R)-8,18-bis(6-amino-9H-purin-9-yl)-9-fluoro-3,12-disulfanyl-2,4,7,11,13,16-hexaoxa-3λ^5,12λ^5-diphosphatricyclo[13.3.0.0^6,10]octadecane-3,12-dione]
2 | 0.34 | Nc1ncnc2c1ncn2[C@@H]1CO[C@@H]2COP(=O)(S)O[C@H]3[C@@H](F)[C@H](n4cnc5c(N)ncnc54)O[C@@H]3COP(=O)(S)O[C@@H]12 (stereo partly drawn) [Compound 55, (1S,6R,8R,9R,10R,15R,18R)-8,18-bis(6-amino-9H-purin-9-yl)-9-fluoro-3,12-disulfanyl-2,4,7,11,13,16-hexaoxa-3λ^5,12λ^5-diphosphatricyclo[13.3.0.0^6,10]octadecane-3,12-dione]
